# In patent publication US10590393B2, “Retinoic acid enhanced human stem cell derived blood brain barrier model” (Wisconsin Alumni Research Foundation, priority 2012, dated 2020):
# Where “and” joins values, the source holds several entries; their conditions need not be identical. Equal entries are not always repeated.
# Assays:
# DF19-9-11T-derived BMECs = test: TEER of RA-treated DF19-9-11T-derived BMECs; format: cell-based, human
# Description: IMR90-4 and DF19-9-11T hiPSCs and H9 hESCs were maintained between passages 26-42 on […] (BD Biosciences) in mTeSR1™ medium ([…] Technologies) or on irradiated mouse embryonic fibroblasts (MEFs) in standard unconditioned medium (Dulbecco's Modified Eagle's Medium [DMEM]/Ham's F12 containing 20% Knockout Serum Replacer (Invitrogen), 1×MEM nonessential amino acids (Invitrogen), 1 mM L-glutamine (Sigma), 0.1 mM β-mercaptoethanol (Sigma), and human basic fibroblast growth factor (bFGF; 100 ng/mL for hiPSCs and 4 ng/mL for hESCs; Waisman Clinical Biomanufacturing Facility, University of Wisconsin-Madison)). Prior to differentiation, cells were passaged onto Matrigel (BD Biosciences) in mTeSR1 medium ([…] Technologies). After 2-3 days in mTeSR1, medium was switched to unconditioned medium (UM) lacking bFGF for 6 days. Human endothelial serum-free medium (hESFM; Invitrogen) supplemented with 20 ng/mL bFGF (R&D Systems) and 1% platelet-poor plasma derived bovine serum (Biomedical Technologies, Inc.) was then added for an additional 2-4 days.
# All-trans RA (Sigma) was included at concentrations of 1-10 μM depending on the experiment. Equivalent DMSO was used as a vehicle control in some experiments. Cells were then dissociated with Versene (Invitrogen) and plated onto 12-well tissue culture polystyrene plates or 1.12 cm^2 Transwell-Clear® permeable inserts (0.4 μm pore size) coated with a mixture of collagen IV (400 μg/mL; Sigma) and fibronectin (100 μg/mL; Sigma). Culture plates were incubated with the coating for at least 30 min at 37° C., while the inserts were incubated for a minimum of 4 h at 37° C. hPSC-derived BMECs were then cultured in EC medium overnight (with or without RA). […] Also, our previous study used hPSCs exclusively maintained on MEFs.
# FIG. 5 dictates the timing of co-culture experiments. […] Trans-endothelial electrical resistance (TEER) was measured immediately prior to co-culture using an EVOM voltohmmeter (World Precision Instruments, Sarasota, Fla., USA) and approximately every 24 h thereafter as necessary.
# [1] = test system: differentiating IMR90-4 hiPSCs; test: Adherens junction and tight junction protein expression (immunocytochemistry, flow cytometry, western blot); format: cell-based, human
# Description: Cells were washed twice with phosphate-buffered saline (PBS; Sigma) and fixed with either 100% ice-cold methanol for 10 min or 4% paraformaldehyde for 15 min. Cells were then washed twice with PBS and blocked in PBS containing 40% goat serum (40% PBSG; Sigma) at 20° C. for 30 min. In some instances, 0.1% Triton X-100 (TX-100) was included during this step to permeabilize the cells. Cells were then washed once with PBS and incubated with primary antibodies against occludin (1:100; Invitrogen), claudin-5 (1:100; Invitrogen), VE-cadherin (1:25; Santa Cruz Biotechnology), von Willebrand Factor (vWF; 1:100; Dako), p-glycoprotein (clone F4; 1:25; Lab Vision), breast cancer resistance protein (BCRP, clone 5D3; 1:25; Millipore), multidrug resistance protein 1 (MRP1, clone QCRL-1; 1:100; Millipore), in 40% PBSG at 4° C. overnight. Cells were washed three times with PBS and incubated with secondary antibodies (goat anti-rabbit Texas Red and goat anti-mouse Alexa Fluor 488; 1:500; Invitrogen) for 1 h at 20° C. […] For quantitative analysis of BMEC integrity, the percentage of cells expressing frayed tight junctions was counted using BMECs immunolabeled for occludin. […] A minimum of four separate frames and 1000 total cells were counted to obtain a percentage of frayed tight junctions.
# Cells were washed once with PBS and dissociated with ACCUTASE for 5 min, then spun down and fixed in 2% paraformaldehyde for 15 min or 100% methanol for 10 min at 20° C. […] After another two washes with PBS containing 5% FBS, cells were analyzed on a FACSCALIBER flow cytometer and the IgG control was used to quantify positive labeling. Elevated GLUT-1 expression was quantified using a GLUT-1/forward scatter plot referenced to baseline GLUT-1 expression measured at day 4 of UM culture.
# Cells were washed once with PBS and lysed with RIPA buffer (Pierce, Rockford, Ill., USA). Protein concentration was quantified via BCA assay (Pierce) and proteins were then resolved by SDS-PAGE on 4-20% Tris-Glycine gradient gels (Invitrogen). […] Protein levels were detected via a SUPERSIGNAL West Pico Chemiluminescent Substrate (Pierce).
smiles,measurement,setting,value
"CC1=C(/C=C/C(C)=C/C=C/C(C)=C/C(=O)O)C(C)(C)CCC1 [RA, retinoic acid]",Maximum TEER,"DF19-9-11T-derived BMECs; subculture: pericytes, co-culture phase: differentiated NPCs (11 days), 1% PDS",4738±303 Ω × cm^2 and 4738 ± 303 (2) Ω × cm^2
same,Average TEER,"DF19-9-11T-derived BMECs; t = 24 h, between biological replicates",1707 ± 417 Ω × cm^2
same,Maximum TEER,"DF19-9-11T-derived BMECs; t = 24 h, triplicate filters",1968±288 Ω × cm^2
same,decrease of the level of claudin-5 expression,[1]; RA during 2 days of EC medium treatment,1.7 fold
same,increase of the level of occludin expression,"[1]; RA during 2 days of EC medium treatment, across biological replicates",1.8 to 2.9 fold
same,"positive expression for VE-cadherin, claudin-5, and occludin",[1]; purified RA-treated BMECs,95-98%
